{"source": "paper PMC5218480", "about": "(PLoS ONE, 2017)", "test_system": "MV-4-11 cells", "experiment": "Gene expression microarray analysis (Affymetrix PrimeView) and GSEA", "format": "cell-based, human", "design": "RFU PODN (11730768_x_at) / Fold change /veh PODN (11730768_x_at) / RFU LINC00158 (11744669_a_at) / Fold change /veh LINC00158 (11744669_a_at) / RFU DUSP10 (11751237_a_at) / Fold change /veh DUSP10 (11751237_a_at) / RFU ID3 (11757404_x_at) / Fold change /veh ID3 (11757404_x_at) / RFU PLEKHG5 (11737974_s_at) / Fold change /veh PLEKHG5 (11737974_s_at) / RFU LRRC4B (11730491_at) / Fold change /veh LRRC4B (11730491_at) / RFU GIMAP4 (11747438_a_at) / Fold change /veh GIMAP4 (11747438_a_at) / RFU KRT8 (11758183_x_at) / Fold change /veh KRT8 (11758183_x_at) / RFU CNN1 (11734310_a_at) / Fold change /veh CNN1 (11734310_a_at) / RFU VPS37D (11726825_at) / Fold change /veh VPS37D (11726825_at) / RFU C10orf10 (11716522_x_at) / Fold change /veh C10orf10 (11716522_x_at) / RFU KIR2DL2 /// KIR2DL4 /// KIR2DL5A /// KIR2DL5B /// KIR2DS1 /// KIR2DS2 /// KIR2DS3 /// KIR2DS4 /// KIR3DL3 /// KIR3DL3 /// KIR3DS1 (11738374_at) / Fold change /veh KIR2DL2 /// KIR2DL4 /// KIR2DL5A /// KIR2DL5B /// KIR2DS1 /// KIR2DS2 /// KIR2DS3 /// KIR2DS4 /// KIR3DL3 /// KIR3DL3 /// KIR3DS1 (11738374_at) / RFU C1QL1 (11718748_at) / Fold change /veh C1QL1 (11718748_at) / RFU TMPRSS4 (11747572_a_at) / Fold change /veh TMPRSS4 (11747572_a_at) / RFU HAMP (11756126_x_at) / Fold change /veh HAMP (11756126_x_at) / RFU RNFT2 (11725882_a_at) / Fold change /veh RNFT2 (11725882_a_at) / RFU NR4A2 (11747474_a_at) / Fold change /veh NR4A2 (11747474_a_at) / RFU ABCC12 (11746883_a_at) / Fold change /veh ABCC12 (11746883_a_at) / RFU TMEM136 (11760407_x_at) / Fold change /veh TMEM136 (11760407_x_at) / RFU CLDN22 /// WWC2 (11732394_at) / Fold change /veh CLDN22 /// WWC2 (11732394_at) / RFU HLA-DPB1 (11760878_x_at) / Fold change /veh HLA-DPB1 (11760878_x_at) / RFU SPINT1 (11716480_a_at) / Fold change /veh SPINT1 (11716480_a_at) / RFU GAP43 (11754022_s_at) / Fold change /veh GAP43 (11754022_s_at) / RFU A4GNT (11735810_at) / Fold change /veh A4GNT (11735810_at) / RFU PRB3 (11715151_x_at) / Fold change /veh PRB3 (11715151_x_at) / RFU TUBB4B (11761932_at) / Fold change /veh TUBB4B (11761932_at) / RFU CAPN14 (11732068_a_at) / Fold change /veh CAPN14 (11732068_a_at) / RFU TMCC2 (11721928_a_at) / Fold change /veh TMCC2 (11721928_a_at) / RFU IRGQ (11745062_a_at) / Fold change /veh IRGQ (11745062_a_at) / RFU FAM174B (11720279_a_at) / Fold change /veh FAM174B (11720279_a_at) / RFU TMPRSS4 (11748680_a_at) / Fold change /veh TMPRSS4 (11748680_a_at) / RFU FAM212B (11763350_a_at) / Fold change /veh FAM212B (11763350_a_at) / RFU PLEKHG5 (11743358_a_at) / Fold change /veh PLEKHG5 (11743358_a_at) / RFU ZSCAN30 (11745921_a_at) / Fold change /veh ZSCAN30 (11745921_a_at) / RFU CMKLR1 (11741424_a_at) / Fold change /veh CMKLR1 (11741424_a_at) / RFU LOC101060620 /// MAPK8IP1 (11723275_at) / Fold change /veh LOC101060620 /// MAPK8IP1 (11723275_at) / RFU SPTSSB (11747773_x_at) / Fold change /veh SPTSSB (11747773_x_at) / RFU PRSS12 (11739890_at) / Fold change /veh PRSS12 (11739890_at) / RFU BIN1 (11741810_x_at) / Fold change /veh BIN1 (11741810_x_at) / RFU WNT11 (11732464_a_at) / Fold change /veh WNT11 (11732464_a_at) / RFU C10orf10 (11716521_a_at) / Fold change /veh C10orf10 (11716521_a_at) / RFU C5orf56 (11738089_at) / Fold change /veh C5orf56 (11738089_at) / RFU CYB561 (11721691_x_at) / Fold change /veh CYB561 (11721691_x_at) / RFU ANKRD19P (11752326_a_at) / Fold change /veh ANKRD19P (11752326_a_at) / RFU OR2T12 /// OR2T33 /// OR2T8 (11738714_s_at) / Fold change /veh OR2T12 /// OR2T33 /// OR2T8 (11738714_s_at) / RFU VCAN (11748164_a_at) / Fold change /veh VCAN (11748164_a_at) / RFU JSRP1 (11732532_at) / Fold change /veh JSRP1 (11732532_at) / RFU KRTAP10-11 (11738290_x_at) / Fold change /veh KRTAP10-11 (11738290_x_at) / RFU MYO3A (11730013_a_at) / Fold change /veh MYO3A (11730013_a_at) / RFU EBF3 (11725865_a_at) / Fold change /veh EBF3 (11725865_a_at) / RFU CAMK2N1 (11719241_x_at) / Fold change /veh CAMK2N1 (11719241_x_at) / RFU C5orf56 (11738088_a_at) / Fold change /veh C5orf56 (11738088_a_at) / RFU OLFML3 (11715873_a_at) / Fold change /veh OLFML3 (11715873_a_at) / RFU LOC100653217 /// NTM (11731650_a_at) / Fold change /veh LOC100653217 /// NTM (11731650_a_at) / RFU MAPK11 (11762145_a_at) / Fold change /veh MAPK11 (11762145_a_at) / RFU FIZ1 (11724087_x_at) / Fold change /veh FIZ1 (11724087_x_at) / RFU OASL (11726364_x_at) / Fold change /veh OASL (11726364_x_at) / RFU SOX15 (11748057_x_at) / Fold change /veh SOX15 (11748057_x_at) / RFU CD79A (11719716_a_at) / Fold change /veh CD79A (11719716_a_at) / RFU HIST1H1D (11736915_at) / Fold change /veh HIST1H1D (11736915_at) / RFU CASKIN2 (11723855_a_at) / Fold change /veh CASKIN2 (11723855_a_at) / RFU LOC730098 (11760151_x_at) / Fold change /veh LOC730098 (11760151_x_at) / RFU OR4N2 (11742367_at) / Fold change /veh OR4N2 (11742367_at) / RFU PRRT2 (11749266_a_at) / Fold change /veh PRRT2 (11749266_a_at) / RFU SNX32 (11753110_a_at) / Fold change /veh SNX32 (11753110_a_at) / RFU CDHR5 (11726645_a_at) / Fold change /veh CDHR5 (11726645_a_at) / RFU RCAN1 (11760418_a_at) / Fold change /veh RCAN1 (11760418_a_at) / RFU FAM167A (11723789_a_at) / Fold change /veh FAM167A (11723789_a_at) / RFU FAM26E (11764081_at) / Fold change /veh FAM26E (11764081_at) / RFU ISYNA1 (11749810_s_at) / Fold change /veh ISYNA1 (11749810_s_at) / RFU ACY1 (11761880_at) / Fold change /veh ACY1 (11761880_at) / RFU 11764098_at / Fold change /veh 11764098_at / RFU SAMD14 (11745864_x_at) / Fold change /veh SAMD14 (11745864_x_at) / RFU NPB (11741838_a_at) / Fold change /veh NPB (11741838_a_at) / RFU TMPRSS6 (11731388_a_at) / Fold change /veh TMPRSS6 (11731388_a_at) / RFU KRTAP10-2 (11738614_at) / Fold change /veh KRTAP10-2 (11738614_at) / RFU ARHGAP8 /// PRR5-ARHGAP8 (11727945_x_at) / Fold change /veh ARHGAP8 /// PRR5-ARHGAP8 (11727945_x_at) / RFU KRTAP5-7 /// NADSYN1 (11734609_at) / Fold change /veh KRTAP5-7 /// NADSYN1 (11734609_at) / RFU RASL12 (11751679_a_at) / Fold change /veh RASL12 (11751679_a_at) / RFU CDKN2B (11736163_a_at) / Fold change /veh CDKN2B (11736163_a_at) / RFU PRF1 (11729649_at) / Fold change /veh PRF1 (11729649_at) / RFU, ZNF638 /// ZNF638-IT1 / Fold change vs veh, ZNF638 /// ZNF638-IT1 / RFU, PANK3 / Fold change vs veh, PANK3 / RFU, SH3YL1 / Fold change vs veh, SH3YL1 / RFU, ZEB2 / Fold change vs veh, ZEB2 / RFU, NRIP1 / Fold change vs veh, NRIP1 / RFU, PTTG1IP / Fold change vs veh, PTTG1IP / RFU, CAPN2 / Fold change vs veh, CAPN2 / RFU, MED14 / Fold change vs veh, MED14 / RFU, SNORA58 / Fold change vs veh, SNORA58 / RFU, C1orf63 / Fold change vs veh, C1orf63 / RFU, LRRFIP1 / Fold change vs veh, LRRFIP1 / RFU, NDUFAF7 / Fold change vs veh, NDUFAF7 / RFU, SLC12A2 / Fold change vs veh, SLC12A2 / RFU, IBTK / Fold change vs veh, IBTK / RFU, ESF1 / Fold change vs veh, ESF1 / Fold change vs veh, TMEM50B / RFU, TAOK1 / Fold change vs veh, TAOK1 / RFU, ACBD3 / Fold change vs veh, ACBD3 / RFU, TMA16 / Fold change vs veh, TMA16 / RFU, RWDD3 / Fold change vs veh, RWDD3 / RFU, BCAT1 / Fold change vs veh, BCAT1 / RFU, EDEM3 / Fold change vs veh, EDEM3 / RFU, TMEM33 / Fold change vs veh, TMEM33 / RFU, WDR75 / Fold change vs veh, WDR75 / RFU, AHCTF1 / Fold change vs veh, AHCTF1 / RFU, TFRC / Fold change vs veh, TFRC / RFU, ZDHHC17 / Fold change vs veh, ZDHHC17 / RFU, NOM1 / Fold change vs veh, NOM1 / RFU, ARL8B / Fold change vs veh, ARL8B / RFU, ZBTB11 / Fold change vs veh, ZBTB11 / RFU, TAMM41 / Fold change vs veh, TAMM41 / RFU, KIAA1704 /// LOC100996395 / Fold change vs veh, KIAA1704 /// LOC100996395 / RFU, ING1 / Fold change vs veh, ING1 / RFU, TRMT61B / Fold change vs veh, TRMT61B / RFU, FUBP3 / Fold change vs veh, FUBP3 / RFU, TP53 / Fold change vs veh, TP53 / RFU, TNKS2 / Fold change vs veh, TNKS2 / RFU, ZFP14 / Fold change vs veh, ZFP14 / RFU, ACTR2 / Fold change vs veh, ACTR2 / RFU, PPP3R1 / Fold change vs veh, PPP3R1 / RFU, PIK3R1 / Fold change vs veh, PIK3R1 / RFU, HNRNPA1 / Fold change vs veh, HNRNPA1 / RFU, RNF170 / Fold change vs veh, RNF170 / RFU, ZNF28 / Fold change vs veh, ZNF28 / RFU, RNGTT / Fold change vs veh, RNGTT / RFU, OGT / Fold change vs veh, OGT / RFU, BRD1 / Fold change vs veh, BRD1 / RFU, MARS / Fold change vs veh, MARS / RFU, ZNF655 / Fold change vs veh, ZNF655 / RFU, FAHD1 / Fold change vs veh, FAHD1 / RFU, BDP1 / Fold change vs veh, BDP1 / RFU, LRRCC1 / Fold change vs veh, LRRCC1 / RFU, ARID1A / Fold change vs veh, ARID1A / RFU, ZNF146 / Fold change vs veh, ZNF146 / RFU, ZNF330 / Fold change vs veh, ZNF330 / RFU, GPN3 / Fold change vs veh, GPN3 / RFU, C9orf123 / Fold change vs veh, C9orf123 / RFU, N4BP2L2 / Fold change vs veh, N4BP2L2 / RFU, ARFIP1 / Fold change vs veh, ARFIP1 / RFU, FAM179B / Fold change vs veh, FAM179B / RFU, BCL10 / Fold change vs veh, BCL10 / RFU, UHRF1BP1L / Fold change vs veh, UHRF1BP1L / RFU, BET1 / Fold change vs veh, BET1 / RFU, CNOT2 / Fold change vs veh, CNOT2 / RFU, ZNF268 / Fold change vs veh, ZNF268 / Fold change vs veh, ZNF507 / RFU, DGCR2 / Fold change vs veh, DGCR2 / RFU, WDSUB1 / Fold change vs veh, WDSUB1 / Fold change vs veh, HSP90B1 /// MIR3652 / RFU, ADSS / Fold change vs veh, ADSS / RFU, GK / Fold change vs veh, GK / RFU, ZNF148 / Fold change vs veh, ZNF148 / RFU, TAF9 / Fold change vs veh, TAF9 / RFU, SLC1A5 / Fold change vs veh, SLC1A5 / RFU, SLMO2 / Fold change vs veh, SLMO2 / RFU, ABCC4 / Fold change vs veh, ABCC4 / RFU, LOC101060439 /// RAP1B / Fold change vs veh, LOC101060439 /// RAP1B / RFU, RFX7 / Fold change vs veh, RFX7 / RFU, GTPBP10 / Fold change vs veh, GTPBP10 / RFU, CNEP1R1 / Fold change vs veh, CNEP1R1 / RFU, BIVM-ERCC5 /// ERCC5 / Fold change vs veh, BIVM-ERCC5 /// ERCC5 / RFU, ILF3 / Fold change vs veh, ILF3 / RFU 11762660_at / Fold change /veh 11762660_at / RFU VCAN (11757783_s_at) / Fold change /veh VCAN (11757783_s_at) / RFU DDX43 (11728927_at) / Fold change /veh DDX43 (11728927_at) / RFU KRT8 (11758188_x_at) / Fold change /veh KRT8 (11758188_x_at) / RFU NKD1 (11759106_at) / Fold change /veh NKD1 (11759106_at) / RFU SRD5A1 (11742802_a_at) / Fold change /veh SRD5A1 (11742802_a_at) / RFU TPSAB1 /// TPSB2 (11721975_s_at) / Fold change /veh TPSAB1 /// TPSB2 (11721975_s_at) / RFU GSTM3 (11746129_a_at) / Fold change /veh GSTM3 (11746129_a_at) / RFU IL23R (11737362_x_at) / Fold change /veh IL23R (11737362_x_at) / RFU TMEM51 (11727254_a_at) / Fold change /veh TMEM51 (11727254_a_at) / RFU PIWIL2 (11732686_x_at) / Fold change /veh PIWIL2 (11732686_x_at) / RFU ORM1 (11744905_x_at) / Fold change /veh ORM1 (11744905_x_at) / RFU CCDC152 (11743942_at) / Fold change /veh CCDC152 (11743942_at) / RFU ECM1 (11717891_a_at) / Fold change /veh ECM1 (11717891_a_at) / RFU IL23R (11748794_a_at) / Fold change /veh IL23R (11748794_a_at) / RFU TNFAIP8L3 (11732012_x_at) / Fold change /veh TNFAIP8L3 (11732012_x_at) / RFU MBOAT4 (11741988_at) / Fold change /veh MBOAT4 (11741988_at) / RFU 11764193_at / Fold change /veh 11764193_at / RFU TMEM53 (11763286_at) / Fold change /veh TMEM53 (11763286_at) / RFU MAGEB2 (11727129_at) / Fold change /veh MAGEB2 (11727129_at) / RFU TMEM200A (11744735_a_at) / Fold change /veh TMEM200A (11744735_a_at) / RFU CCDC152 (11751479_a_at) / Fold change /veh CCDC152 (11751479_a_at) / RFU FAM211A (11726209_a_at) / Fold change /veh FAM211A (11726209_a_at) / RFU RGS16 (11746705_a_at) / Fold change /veh RGS16 (11746705_a_at) / RFU VCAN (11755009_s_at) / Fold change /veh VCAN (11755009_s_at) / RFU RHOB (11743442_s_at) / Fold change /veh RHOB (11743442_s_at) / RFU RGS16 (11720943_a_at) / Fold change /veh RGS16 (11720943_a_at) / RFU RGS16 (11720944_at) / Fold change /veh RGS16 (11720944_at) / RFU, VPS4B / Fold change vs veh, VPS4B / RFU, CREB1 / Fold change vs veh, CREB1 / RFU, DNAJC13 / Fold change vs veh, DNAJC13 / RFU, GNAQ / Fold change vs veh, GNAQ / RFU, CDK5R1 / Fold change vs veh, CDK5R1 / RFU, ZRANB3 / Fold change vs veh, ZRANB3 / RFU, CUL4A / Fold change vs veh, CUL4A / RFU, CCNY / Fold change vs veh, CCNY / RFU, UFL1 / Fold change vs veh, UFL1 / RFU, COG3 / Fold change vs veh, COG3 / RFU, DIAPH2 / Fold change vs veh, DIAPH2 / RFU, SKA2 / Fold change vs veh, SKA2 / RFU, AFF3 / Fold change vs veh, AFF3 / RFU, LMF1 / Fold change vs veh, LMF1 / RFU, IPO11 / Fold change vs veh, IPO11 / RFU, DFFB / Fold change vs veh, DFFB / RFU, FOXP1 / Fold change vs veh, FOXP1 / RFU, CARD8 / Fold change vs veh, CARD8 / RFU, STRN3 / Fold change vs veh, STRN3 / RFU, ADK / Fold change vs veh, ADK / RFU, RASSF2 / Fold change vs veh, RASSF2 / RFU, WIPF1 / Fold change vs veh, WIPF1 / RFU, LARP1B / Fold change vs veh, LARP1B / RFU, RASA1 / Fold change vs veh, RASA1 / RFU, RB1 / Fold change vs veh, RB1 / RFU, PPFIA1 / Fold change vs veh, PPFIA1 / RFU, MAT2A / Fold change vs veh, MAT2A / RFU, CCT5 / Fold change vs veh, CCT5 / RFU, WDR92 / Fold change vs veh, WDR92 / RFU, CUX1 / Fold change vs veh, CUX1 / RFU, TTC7A / Fold change vs veh, TTC7A / RFU, TMEM135 / Fold change vs veh, TMEM135 / RFU, DEPTOR / Fold change vs veh, DEPTOR / RFU, CPM / Fold change vs veh, CPM / RFU, DNAJB6 / Fold change vs veh, DNAJB6 / RFU, CACNA2D3 / Fold change vs veh, CACNA2D3 / RFU, DTX4 / Fold change vs veh, DTX4 / RFU, TFCP2 / Fold change vs veh, TFCP2 / RFU, GMCL1 /// GMCL1P1 / Fold change vs veh, GMCL1 /// GMCL1P1 / RFU, AEBP2 / Fold change vs veh, AEBP2 / RFU, SNHG1 /// SNORD22 /// SNORD25 /// SNORD26 /// SNORD27 /// SNORD28 /// SNORD29 /// SNORD31 / Fold change vs veh, SNHG1 /// SNORD22 /// SNORD25 /// SNORD26 /// SNORD27 /// SNORD28 /// SNORD29 /// SNORD31 / Fold change (Aza/veh), C12orf56 (ProbeSet 11735607_a_at) / Fold change (ACY-1035/veh), C12orf56 (ProbeSet 11735607_a_at) / Fold change (Aza/veh), FGFR1OP (ProbeSet 11751329_s_at) / Fold change (ACY-1035/veh), FGFR1OP (ProbeSet 11751329_s_at) / Fold change (Aza/veh), VPS36 (ProbeSet 11739960_a_at) / Fold change (ACY-1035/veh), VPS36 (ProbeSet 11739960_a_at) / RFU SYPL1 (11715823_x_at) / Fold change /veh SYPL1 (11715823_x_at) / RFU IGFBP7 (11715501_s_at) / Fold change /veh IGFBP7 (11715501_s_at) / RFU REEP3 (11722064_at) / Fold change /veh REEP3 (11722064_at) / RFU IGLL1 (11728026_x_at) / Fold change /veh IGLL1 (11728026_x_at): dose or concentration left out as unconfirmed", "settings": "ProbeSet 11733831_s_at; LIST D", "data": [{"smiles": "Nc1ncn([C@@H]2O[C@H](CO)[C@@H](O)[C@H]2O)c(=O)n1", "note": "[azacitidine]", "values": [{"measurement": "Fold change vs veh, GMCL1 /// GMCL1P1", "value": 0.81}]}]}
